Experimental data taken from patent US20260092061A1, “COMPOUNDS FOR TARGETED PROTEIN DEGRADATION” (Amphista Therapeutics Limited, priority 2022, published 2026).

How the values were obtained:
[1] = biological target: T1, BRD9 (Homo sapiens, UniProt Q9H8M2); experiment: BRD9 degradation, HiBiT-BRD9 KI HEK293 (LgBiT) cells, NanoGlo Lytic Endpoint assay (Assay Protocol 1); assay type: cell-based; details: Assay protocol 1, BRD9 degradation; for Dmax: HEK293, read-out: Dmax; for DC50: read-out: DC50
T1 sequence (Q9H8M2 1-597): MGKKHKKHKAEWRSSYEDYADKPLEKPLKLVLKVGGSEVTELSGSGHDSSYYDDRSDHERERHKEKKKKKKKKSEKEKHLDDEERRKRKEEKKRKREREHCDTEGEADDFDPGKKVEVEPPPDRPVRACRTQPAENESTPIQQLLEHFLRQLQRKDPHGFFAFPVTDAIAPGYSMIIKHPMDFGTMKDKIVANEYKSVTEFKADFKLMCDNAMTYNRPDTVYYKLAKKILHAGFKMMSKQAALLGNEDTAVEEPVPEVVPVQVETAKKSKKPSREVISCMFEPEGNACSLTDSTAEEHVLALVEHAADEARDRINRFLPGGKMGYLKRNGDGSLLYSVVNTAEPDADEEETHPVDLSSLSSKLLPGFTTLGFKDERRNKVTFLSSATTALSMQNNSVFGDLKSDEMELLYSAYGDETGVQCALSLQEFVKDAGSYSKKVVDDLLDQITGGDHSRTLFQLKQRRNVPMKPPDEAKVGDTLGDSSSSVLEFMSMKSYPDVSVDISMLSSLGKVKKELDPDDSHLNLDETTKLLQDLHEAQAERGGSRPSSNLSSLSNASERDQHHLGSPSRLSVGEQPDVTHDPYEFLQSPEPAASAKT
How it was run: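 HiBiT-tagged BRD9 knock-in HEK293 (LgBiT) cells exposed to compounds for 6 h at 37 °C, 5% CO2. Residual BRD9 measured by HiBiT lytic luminescence. % BRD9 remaining normalised to DMSO-treated cells (high) and no-cell wells (low).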

[2] = biological target: T1, BRD9; experiment: Degradation of BRD9 (IF), immunofluorescence in MV4-11 cells, 24 hours (Assay Protocol 2); assay type: cell-based; set-up: A suspension of MV4-11 cells (ATCC CRL-9591) was prepared; host or cells: MV4-11; details: BRD9 degradation; for DC50: Assay protocol 2, read-out: DC50; for Dmax: MV4-11, Assay protocol 2, read-out: Dmax
How it was run: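 MV4-11 cells treated with compound 24 h at 37° C., then fixed, permeabilised and immunostained for BRD9 (anti-BRD9 E4Q3F, Alexa 647 secondary, Hoechst counterstain). High-content imaging quantified nuclear BRD9 signal; % BRD9 remaining normalised to DMSO and 100 nM CFT-8634 controls.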

Structure (SMILES)	Dmax [1] [%]	DC50 [2] [nM]	Dmax [2] [%]	DC50 [1] [nM]
COc1cc(-c2cn(C)c(=O)c(C)c2C)cc(OC)c1CN1CCN(Cc2cccc3c2CCN(C(=O)/C(C#N)=C/C2CC(F)(F)C2)C3C)CC1 (mixture of isomers) [Compound B1, (E/Z)-3-(3,3-difluorocyclobutyl)-2-(5-((4-(2,6-dimethoxy-4-(1,4,5-trimethyl-6-oxo-1,6-dihydropyridin-3-yl)benzyl)piperazin-1-yl)methyl)-1-methyl-1,2,3,4-tetrahydroisoquinoline-2-carbonyl)acrylonitrile]	40 to 70	< 1.25	40 to 70	
COc1cc(-c2cn(C)c(=O)c(C)c2C)cc(OC)c1CN1CC2CCC(C1)N2Cc1cccc2c1CCN(C(=O)/C(C#N)=C/C(C)(C)C)C2C (mixture of isomers) [Compound B3, (E/Z)-2-(5-((3-(2,6-dimethoxy-4-(1,4,5-trimethyl-6-oxo-1,6-dihydropyridin-3-yl)benzyl)-3,8-diazabicyclo[3.2.1]octan-8-yl)methyl)-1-methyl-1,2,3,4-tetrahydroisoquinoline-2-carbonyl)-4,4-dimethylpent-2-enenitrile]	> 75	10 to 25	> 75	10 to 25
COc1cc(-c2cn(C)c(=O)c(C)c2C)cc(OC)c1CN1CCN(Cc2cccc3c2CCN(C(=O)/C(C#N)=C/c2cc(C)on2)C3C)CC1 (mixture of isomers) [Compound B4, (E/Z)-2-(5-((4-(2,6-dimethoxy-4-(1,4,5-trimethyl-6-oxo-1,6-dihydropyridin-3-yl)benzyl)piperazin-1-yl)methyl)-1-methyl-1,2,3,4-tetrahydroisoquinoline-2-carbonyl)-3-(5-methylisoxazol-3-yl)acrylonitrile]	40 to 70	1.25 to 10	40 to 70	1.25 to 10
COc1cc(-c2cn(C)c(=O)c(C)c2C)cc(OC)c1CN1CC2CC(C1)N2Cc1cccc2c1CCN(C(=O)/C(C#N)=C/c1cccc(Br)n1)C2C (mixture of isomers) [Compound B7, (E/Z)-3-(6-bromopyridin-2-yl)-2-(5-((3-(2,6-dimethoxy-4-(1,4,5-trimethyl-6-oxo-1,6-dihydropyridin-3-yl)benzyl)-3,6-diazabicyclo[3.1.1]heptan-6-yl)methyl)-1-methyl-1,2,3,4-tetrahydroisoquinoline-2-carbonyl)acrylonitrile]	40 to 70	< 1.25	40 to 70	1.25 to 10
COc1cc(-c2cn(C)c(=O)c(C)c2C)cc(OC)c1CN1CCN(Cc2cccc3c2CCN(C(=O)/C(C#N)=C/c2ncc(C(F)(F)F)s2)C3C)CC1 (mixture of isomers) [Compound B10, (E/Z)-2-(5-((4-(2,6-dimethoxy-4-(1,4,5-trimethyl-6-oxo-1,6-dihydropyridin-3-yl)benzyl)piperazin-1-yl)methyl)-1-methyl-1,2,3,4-tetrahydroisoquinoline-2-carbonyl)-3-(5-(trifluoromethyl)thiazol-2-yl)acrylonitrile]	70 to 75		40 to 70	1.25 to 10
COc1cc(-c2cn(C)c(=O)c(C)c2C)cc(OC)c1CN1CCN(Cc2cccc3c2CCN(C(=O)/C(C#N)=C/c2nc(C(F)(F)F)cs2)C3C)CC1 (mixture of isomers) [Compound B11, (E/Z)-2-(5-((4-(2,6-dimethoxy-4-(1,4,5-trimethyl-6-oxo-1,6-dihydropyridin-3-yl)benzyl)piperazin-1-yl)methyl)-1-methyl-1,2,3,4-tetrahydroisoquinoline-2-carbonyl)-3-(4-(trifluoromethyl)thiazol-2-yl)acrylonitrile]	> 75	< 1.25	> 75	< 1.25
COc1cc(-c2cn(C)c(=O)c(C)c2C)cc(OC)c1CN1CC2CC(C1)N2Cc1cccc(C2CCCN2C(=O)/C(C#N)=C/c2cccc(Br)n2)c1 (mixture of isomers) [Compound B12, (E/Z)-3-(6-bromopyridin-2-yl)-2-(2-(3-((3-(2,6-dimethoxy-4-(1,4,5-trimethyl-6-oxo-1,6-dihydropyridin-3-yl)benzyl)-3,6-diazabicyclo[3.1.1]heptan-6-yl)methyl)phenyl)pyrrolidine-1-carbonyl)acrylonitrile]	> 75	1.25 to 10	> 75	10 to 25
COc1cc(-c2cn(C)c(=O)c(C)c2C)cc(OC)c1CN1C2CC1CN(Cc1cccc3c1CCN(C(=O)/C(C#N)=C/C(C)(C)C)C3C)C2 (mixture of isomers) [Compound B13, (E/Z)-2-(5-((6-(2,6-dimethoxy-4-(1,4,5-trimethyl-6-oxo-1,6-dihydropyridin-3-yl)benzyl)-3,6-diazabicyclo[3.1.1]heptan-3-yl)methyl)-1-methyl-1,2,3,4-tetrahydroisoquinoline-2-carbonyl)-4,4-dimethylpent-2-enenitrile]	> 75	1.25 to 10	40 to 70	10 to 25

Other lines, results leading:

Dmax [1] [%]	DC50 [2] [nM]	Dmax [2] [%]	DC50 [1] [nM]	Structure (SMILES)
> 75	1.25 to 10	70 to 75	1.25 to 10	COc1cc(-c2cn(C)c(=O)c(C)c2C)cc(OC)c1CN1CCCN(Cc2cccc3c2CCN(C(=O)/C(C#N)=C/c2cccc(Br)n2)C3C)CC1 (mixture of isomers) [Compound B2, (E/Z)-3-(6-bromopyridin-2-yl)-2-(5-((4-(2,6-dimethoxy-4-(1,4,5-trimethyl-6-oxo-1,6-dihydropyridin-3-yl)benzyl)-1,4-diazepan-1-yl)methyl)-1-methyl-1,2,3,4-tetrahydroisoquinoline-2-carbonyl)acrylonitrile]
> 75	< 1.25	> 75	1.25 to 10	COc1cc(-c2cn(C)c(=O)c(C)c2C)cc(OC)c1CN(C)Cc1ccc2c(c1)C(C)N(C(=O)/C(C#N)=C/c1cccc(Br)n1)CC2 (mixture of isomers) [Compound B5, (E/Z)-3-(6-bromopyridin-2-yl)-2-(7-(((2,6-dimethoxy-4-(1,4,5-trimethyl-6-oxo-1,6-dihydropyridin-3-yl)benzyl)(methyl)amino)methyl)-1-methyl-1,2,3,4-tetrahydroisoquinoline-2-carbonyl)acrylonitrile]
> 75	< 1.25	> 75	< 1.25	COc1cc(-c2cn(C)c(=O)c(C)c2C)cc(OC)c1CN1CCN(Cc2cccc3c2CCN(C(=O)/C(C#N)=C/c2ccnc(C)n2)C3C)CC1 (mixture of isomers) [Compound B9, (E/Z)-2-(5-((4-(2,6-dimethoxy-4-(1,4,5-trimethyl-6-oxo-1,6-dihydropyridin-3-yl)benzyl)piperazin-1-yl)methyl)-1-methyl-1,2,3,4-tetrahydroisoquinoline-2-carbonyl)-3-(2-methylpyrimidin-4-yl)acrylonitrile]
> 75	1.25 to 10	> 75	1.25 to 10	COc1cc(-c2cn(C)c(=O)c(C)c2C)cc(OC)c1CN(C)Cc1cccc2c1CCN(C(=O)/C(C#N)=C/c1cccc(Br)n1)C2C (mixture of isomers) [Compound B14, (E/Z)-3-(6-bromopyridin-2-yl)-2-(5-(((2,6-dimethoxy-4-(1,4,5-trimethyl-6-oxo-1,6-dihydropyridin-3-yl)benzyl)(methyl)amino)methyl)-1-methyl-1,2,3,4-tetrahydroisoquinoline-2-carbonyl)acrylonitrile]
> 75	< 1.25	> 75	1.25 to 10	COc1cc(-c2cn(C)c(=O)c(C)c2C)cc(OC)c1CN(C)Cc1cccc2c1CCN(C(=O)/C(C#N)=C/c1cccc(C(F)(F)F)n1)C2C (mixture of isomers) [Compound B15, (E/Z)-2-(5-(((2,6-dimethoxy-4-(1,4,5-trimethyl-6-oxo-1,6-dihydropyridin-3-yl)benzyl)(methyl)amino)methyl)-1-methyl-1,2,3,4-tetrahydroisoquinoline-2-carbonyl)-3-(6-(trifluoromethyl)pyridin-2-yl)acrylonitrile]
> 75	1.25 to 10	> 75	< 1.25	COc1cc(-c2cn(C)c(=O)c(C)c2C)cc(OC)c1CN(C)C(=O)c1cccc2c1CCN(C(=O)/C(C#N)=C/c1cccc(Br)n1)C2C (mixture of isomers) [Compound B16, (E/Z)-2-(3-(6-bromopyridin-2-yl)-2-cyanoacryloyl)-N-(2,6-dimethoxy-4-(1,4,5-trimethyl-6-oxo-1,6-dihydropyridin-3-yl)benzyl)-N,1-dimethyl-1,2,3,4-tetrahydroisoquinoline-5-carboxamide]
